Source: patent US20260347338A1, “PYRIMIDINE/PYRIDINE DERIVATIVES OR SALTS THEREOF AND PHARMACEUTICAL COMPOSITIONS COMPRISING THE SAME” (YUHAN CORPORATION, priority 2023, published 2026)
Counter-ions that a name gives are not always drawn.

Target: T1, human recombinant HPK1 (Homo sapiens, UniProt Q92918)
T1 construct: purchased BPS Bioscience
Assay: Inhibitory activity against human recombinant HPK1 (TR-FRET)
Assay type: biochemical
Details: ULight-p70S6K peptide, ATP at Km, room temperature, 1 hour, 0.32 to 1000 nM compound
Summary of the method: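 IC50 classes A–D use 10, 50 and 100 nM cut-offs, derived from TR-FRET signal inhibition relative to DMSO controls. Human recombinant HPK1 phosphorylated ULight-p70S6K peptide at Km ATP for 1 h, room temperature, pH 7.4; test range 0.32–1000 nM final, detection with Eu-labelled antibody after EDTA quench.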

T1 sequence (Q92918 whole entry): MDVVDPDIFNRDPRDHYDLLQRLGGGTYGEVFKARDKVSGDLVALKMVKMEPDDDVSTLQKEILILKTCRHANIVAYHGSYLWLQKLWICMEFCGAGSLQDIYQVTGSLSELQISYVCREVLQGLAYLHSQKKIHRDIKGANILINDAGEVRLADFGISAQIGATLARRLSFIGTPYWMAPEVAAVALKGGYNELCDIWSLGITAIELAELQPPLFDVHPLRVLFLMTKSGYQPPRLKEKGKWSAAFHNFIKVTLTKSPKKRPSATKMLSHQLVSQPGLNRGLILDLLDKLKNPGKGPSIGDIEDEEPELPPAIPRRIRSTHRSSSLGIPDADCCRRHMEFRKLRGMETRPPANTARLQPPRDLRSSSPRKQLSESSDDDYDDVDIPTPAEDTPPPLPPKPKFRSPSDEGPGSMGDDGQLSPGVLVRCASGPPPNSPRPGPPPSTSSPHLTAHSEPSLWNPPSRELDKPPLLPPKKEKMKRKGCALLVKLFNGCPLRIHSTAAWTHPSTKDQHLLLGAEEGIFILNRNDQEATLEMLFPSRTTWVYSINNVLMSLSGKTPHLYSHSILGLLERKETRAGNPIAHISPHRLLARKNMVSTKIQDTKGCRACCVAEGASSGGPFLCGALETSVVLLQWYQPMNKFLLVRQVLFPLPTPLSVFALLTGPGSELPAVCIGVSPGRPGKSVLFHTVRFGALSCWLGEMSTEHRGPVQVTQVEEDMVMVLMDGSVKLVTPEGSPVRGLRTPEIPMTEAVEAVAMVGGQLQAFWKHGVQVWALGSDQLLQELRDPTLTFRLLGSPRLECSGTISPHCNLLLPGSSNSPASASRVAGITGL

IC50 [µM]	Molecule
≤ 0.01	COc1cc(F)cc(F)c1-c1nccc(Nc2cc(N3C[C@@H](N)C[C@@H](F)C3)c(-c3cnn(CC(F)(F)F)c3)cn2)n1 [Example 324, N-(4-((3S,5R)-3-amino-5-fluoropiperidin-1-yl)-5-(2-(2,2,2-trifluoroethyl)-1H-pyrazol-4-yl)pyridin-2-yl)-2-(2,4-difluoro-6-methoxyphenyl)pyrimidin-4-amine]
≤ 0.01	COc1cccc(F)c1-c1nc(Nc2cc(N3CCC[C@H](O)C3)c(-c3cnn(C4CCN(C)CC4)c3)cn2)ccc1C#N [Example 325, 2-(2-fluoro-6-methoxyphenyl)-6-((4-((S)-3-hydroxypiperidin-1-yl)-5-(1-(1-methylpiperidin-4-yl)-1H-pyrazol-4-yl)pyridin-2-yl)amino)nicotinonitrile]
≤ 0.01	COc1cccc(F)c1-c1nc(Nc2cc(N3CC[C@@H](N)[C@H](O)C3)c(-c3cnn(C(F)F)c3)cn2)ccc1C#N [Example 326, 6-((4-((3R,4R)-4-amino-3-hydroxypiperidin-1-yl)-5-(1-(difluoromethyl)-1H-pyrazol-4-yl)pyridin-2-yl)amino)-2-(2-fluoro-6-methoxyphenyl)nicotinonitrile]
≤ 0.01	CCn1cc(-c2cnc(Nc3ccc(C#N)c(-c4c(F)cccc4OC)n3)cc2N2CCC[C@H](N)C2)cn1 [Example 327, 6-((4-((S)-3-aminopiperidin-1-yl)-5-(1-ethyl-1H-pyrazol-4-yl)pyridin-2-yl)amino)-2-(2-fluoro-6-methoxyphenyl)nicotinonitrile hydrochloride]
≤ 0.01	COc1cccc(F)c1-c1nc(Nc2cc(N3CCC[C@H](N)C3)c(-c3cnn(C(C)C)c3)cn2)ccc1C#N [Example 328, 6-((4-((S)-3-aminopiperidin-1-yl)-5-(1-isopropyl-1H-pyrazol-4-yl)pyridin-2-yl)amino)-2-(2-fluoro-6-methoxyphenyl)nicotinonitrile hydrochloride]
≤ 0.01	COc1cccc(F)c1-c1nc(Nc2cc(N3CCC[C@H](N)C3)c(-c3cnn(C4CC4)c3)cn2)ccc1C#N [Example 329, 6-((4-((S)-3-aminopiperidin-1-yl)-5-(1-cyclopropyl-1H-pyrazol-4-yl)pyridin-2-yl)amino)-2-(2-fluoro-6-methoxyphenyl)nicotinonitrile hydrochloride]
≤ 0.01	COc1cccc(F)c1-c1nc(Nc2cc(N3CCC[C@H](N)C3)c(-c3cnn(CC4CC4)c3)cn2)ccc1C#N [Example 330, 6-((4-((S)-3-aminopiperidin-1-yl)-5-(1-(cyclopropylmethyl)-1H-pyrazol-4-yl)pyridin-2-yl)amino)-2-(2-fluoro-6-methoxyphenyl)nicotinonitrile hydrochloride]
≤ 0.01	COc1cccc(F)c1-c1nc(Nc2cc(N3CC[C@@H](F)[C@H](O)C3)c(-c3cnn(C(F)F)c3)cn2)ccc1C#N [Example 331, 6-((5-(1-(difluoromethyl)-1H-pyrazol-4-yl)-4-((3R,4R)-4-fluoro-3-hydroxypiperidin-1-yl)pyridin-2-yl)amino)-2-(2-fluoro-6-methoxyphenyl)nicotinonitrile]
≤ 0.01	COc1cccc(F)c1-c1nccc(Nc2cc(N3C[C@@H](N)C[C@H](F)C3)c(-c3cnn(CC(F)(F)F)c3)cn2)n1 [Example 332, N-(4-((3S,5S)-3-amino-5-fluoropiperidin-1-yl)-5-(1-(2,2,2-trifluoroethyl)-1H-pyrazol-4-yl)pyridin-2-yl)-2-(2-fluoro-6-methoxyphenyl)pyrimidin-4-amine hydrochloride]
≤ 0.01	COc1cc(F)cc(F)c1-c1nccc(Nc2cc(N3C[C@@H](N)C[C@H](F)C3)c(-c3cnn(CC(F)(F)F)c3)cn2)n1 [Example 333, N-(4-((3S,5S)-3-amino-5-fluoropiperidin-1-yl)-5-(1-(2,2,2-trifluoroethyl)-1H-pyrazol-4-yl)pyridin-2-yl)-2-(2,4-difluoro-6-methoxyphenyl)pyrimidin-4-amine hydrochloride]
≤ 0.01	COc1cccc(F)c1-c1nc(Nc2cc(N3CC[C@@H](F)[C@H](N)C3)c(-c3cnn(C(F)F)c3)cn2)ccc1[N+](=O)[O-] [Example 334, 4-((3R,4R)-3-amino-4-fluoropiperidin-1-yl)-5-(1-(difluoromethyl)-1H-pyrazol-4-yl)-N-(6-(2-fluoro-6-methoxyphenyl)-5-nitropyridin-2-yl)pyridin-2-amine hydrochloride]
≤ 0.01	COc1cc(F)cc(F)c1-c1nccc(Nc2cc(N3C[C@@H](N)C[C@@H](F)C3)c(-c3cnn(C(C)C)c3)cn2)n1 [Example 335, N-(4-((3S,5R)-3-amino-5-fluoropiperidin-1-yl)-5-(1-isopropyl-1H-pyrazol-4-yl)pyridin-2-yl)-2-(2,4-difluoro-6-methoxyphenyl)pyrimidin-4-amine]
≤ 0.01	COc1cc(F)cc(F)c1-c1nccc(Nc2cc(N3C[C@@H](N)C[C@H](F)C3)c(-c3cnn(C(C)C)c3)cn2)n1 [Example 336, N-(4-((3S,5S)-3-amino-5-fluoropiperidin-1-yl)-5-(1-isopropyl-1H-pyrazol-4-yl)pyridin-2-yl)-2-(2,4-difluoro-6-methoxyphenyl)pyrimidin-4-amine]
≤ 0.01	COc1cccc(F)c1-c1nc(Nc2cc(N3CC[C@@H](C)[C@H](N)C3)c(-c3cnn(C(F)F)c3)cn2)ccc1C#N [Example 337, 6-((4-((3S,4R)-3-amino-4-methylpiperidin-1-yl)-5-(1-(difluoromethyl)-1H-pyrazol-4-yl)pyridin-2-yl)amino)-2-(2-fluoro-6-methoxyphenyl)-nicotinonitrile hydrochloride]
≤ 0.01	COc1cc(F)cc(F)c1-c1nc(Nc2cc(N3CC[C@@H](C)[C@H](N)C3)c(-c3cnn(C(F)F)c3)cn2)ccc1C#N [Example 338, 6-((4-((3S,4R)-3-amino-4-methylpiperidin-1-yl)-5-(1-(difluoromethyl)-1H-pyrazol-4-yl)pyridin-2-yl)amino)-2-(2,4-difluoro-6-methoxyphenyl)nicotinonitrile hydrochloride]
≤ 0.01	COc1cc(F)cc(F)c1-c1nccc(Nc2cc(N3CC[C@@H](F)[C@H](N)C3)c(-c3cnn(C(C)C)c3)cn2)n1 [Example 339, N-(4-((3R,4R)-3-amino-4-fluoropiperidin-1-yl)-5-(1-isopropyl-1H-pyrazol-4-yl)pyridin-2-yl)-2-(2,4-difluoro-6-methoxyphenyl)pyrimidin-4-amine hydrochloride]
≤ 0.01	COc1cc(F)cc(F)c1-c1nc(Nc2cc(N3CC[C@@H](F)[C@H](N)C3)c(-c3cnn(C(C)C)c3)cn2)ccc1C#N [Example 340, 6-((4-((3R,4R)-3-amino-4-fluoropiperidin-1-yl)-5-(1-isopropyl-1H-pyrazol-4-yl)pyridin-2-yl)amino)-2-(2,4-difluoro-6-methoxyphenyl)nicotinonitrile hydrochloride]
≤ 0.01	COc1cccc(F)c1-c1nc(Nc2cc(N3CC[C@@H](F)[C@H](N)C3)c(-c3cnn(C(F)F)c3)cn2)ccc1F [Example 341, 4-((3R,4R)-3-amino-4-fluoropiperidin-1-yl)-5-(1-(difluoromethyl)-1H-pyrazol-4-yl)-N-(5-fluoro-6-(2-fluoro-6-methoxyphenyl)pyridin-2-yl)pyridin-2-amine hydrochloride]
0.01 to 0.05	(S)-1-(6′-ethoxy-6-((2-(2-fluoro-6-methoxyphenyl)pyrimidin-4-yl)amino)-[3,3′-bipyridin]-4-yl)piperidin-3-ol [Example 56]
≤ 0.01	(S)-N-(4-(3-aminopiperidin-1-yl)-5-((tetrahydro-2H-pyran-4-yl)ethynyl)pyridin-2-yl)-2-(7-fluoroquinoxalin-6-yl)pyrimidin-4-amine hydrochloride [Example 90]
